The results in this text go back to US20220127258A1, “AROMATIC RING OR HETEROAROMATIC RING COMPOUNDS, PREPARATION METHOD THEREFOR AND MEDICAL USE THEREOF” (The National Institutes of Pharmaceutical R&D Co., Ltd., priority 2019, published 2022).

Data set [1] addresses T1, FXR (Homo sapiens, UniProt Q96RI1).
T1 sequence (Q96RI1 262-486 limits assumed): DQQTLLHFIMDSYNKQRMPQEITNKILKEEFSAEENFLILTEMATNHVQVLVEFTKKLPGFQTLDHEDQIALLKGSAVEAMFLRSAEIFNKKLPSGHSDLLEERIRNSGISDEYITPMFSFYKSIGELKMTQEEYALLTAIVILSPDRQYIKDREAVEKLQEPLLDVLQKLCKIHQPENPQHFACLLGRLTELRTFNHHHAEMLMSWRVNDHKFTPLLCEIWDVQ
In words: FXR agonistic activity, luciferase assay. In kind it is cell-based. To be noted: luc2P-GAL4-HEK293 cells transfected with pBIND-FXR, 24 hours. The procedure:
The FXR agonistic activity of the compound of the present invention was evaluated using the luciferase assay.
The experimental process comprises the follows. The luc2P-GAL4-HEK293 stably transfected cell line (the cell line was established by transfecting pGL4.35 plasmid with HEK293 cells which was then subjected to Hygromycin B screening. The cell contained 9×GAL4 UAS and firefly luciferase reporter gene. The ligand-activated LBD-GAL4 DBD fusion protein can enter the nucleus to bind to 9×GAL4 UAS and activate the transcription of the downstream luciferase reporter gene) was transferred to a 96-well plate with […] per well. pBIND-FXR (Which was constructed by inserting FXR-LBD into pFN26A-BIND hRluc-neo Flexi® vector. The plasmid was 7.5 kb in size, Amp resistant, contained FXR-LBD, and can express FXR-LBD and GAL4 DBD fusion proteins) was transfected using X-tremeGENE HP transfection reagent. The ratio of plasmid to transfection reagent was 1 μg: 2 μl. The specific amount was 100 ng of plasmid and 0.2 μl of X-tremeGENE HP transfection reagent per well. The test compounds (the highest concentration of each compound was 30 μM, 3-fold dilution, a total of 10 concentrations) were added to induce the expression of luciferase. After 24 hours, the 96-well plate containing the test cells was taken out from the incubator, and placed at room temperature. Dual-Glo® Luciferase Reagent with the volume equal to the volume of the medium in the well (80 μl/well) was added to each well and mixed well. The plate was incubated at room temperature for 20 minutes to allow the cells to be fully lysed. All the liquid in the plate was transferred to a 96-well microtiter plate, and the firefly luciferin value was measured with a multi-function plate reader (manufacturer: Bio Tek (USA); model: Synergy4). Dual-Glo® a Stop & Glo® Reagent with the volume equal to the volume of the initial medium (80 μl/well) was added to each well and mixed well. The plate was incubated at room temperature for 10 minutes, and the renilla luciferin value was measured. The measurement order of renilla fluorescence should be the same as that of firefly fluorescence. Curve fitting and EC50 calculation were conducted using GraphPad Prism 5 software by nonlinear regression method. The fitting equation is: Y=Bottom+(Top−Bottom)/(1+10^((Log EC50−X)*HillSlope)), wherein EC50 refers to the semi-effective concentration, Top refers to the maximum effect, Bottom refers to the blank effect, and HillSlope refers to the slope.

Data set [2] has as its target T2, hERG channel (Homo sapiens, UniProt Q12809).
T2 construct: host or cells: HEK293 stably expressing hERG
The experiment in a line: Effect on hERG channel, whole-cell membrane clamp. In kind it is cell-based. The following applies: for hERG current inhibition ratio: n=3. The procedure:
Extracellular fluid: 140 mM NaCl, 3.5 mM KCl, 1 mM MgCl2, 2 mM CaCl2, 10 mM glucose, 10 mM HEPES, 1.25 mM NaH2PO4, pH=7.4 (adjusted by NaOH).
Intracellular fluid: 20 mM KCl, 115 mM K-aspartic acid, 1 mM MgCl2, 5 mM EGTA, 10 mM HEPES, 2 mM Na2-ATP, pH=7.2 (adjusted by KOH).
The stock solution of the compound of Example 8 of the present invention (30.26 mM solution in DMSO) was successively diluted with 10 mL of extracellular fluid to obtain 0.3 μM, 1 μM, 3 μM, […], and 30 μM solutions.
The HEK293 cell line stably expressing the hERG potassium channel (supplier Creacell, catalog number A-0302) was cultured in DMEM medium containing 10% fetal bovine serum and 0.8 mg/mL G418. The culture temperature was 37° C., and the carbon dioxide concentration was 5%.
Cell passage: The old medium was removed, and the cells were washed with PBS once. 1 mL of TrypLE™ expression solution was added, and the cells were incubated at 37° C. for 0.5 minutes. When the cells detached from the bottom of the dish, 5 mL of 37° C. pre-warmed complete medium (DMEM medium containing 10% fetal bovine serum and 0.8 mg/mL G418) was added. The cell suspension was gently pipetted to separate the aggregated cells. The cell suspension was transferred to a sterile centrifuge tube, and centrifuged at 1000 rpm for 5 minutes to collect the cells. Expansion or maintenance culture, the cells were seeded in a 6 cm cell culture dish, and each cell culture dish was seeded with 2.5×10^5 cells (final volume: 5 mL). In order to maintain the electrophysiological activity of the cell, the cell density must not exceed 80%. The cells were separated by TrypLE™ expression solution, and 3×10^3 cells were placed on a cover slide and cultured in a 24-well plate (final volume: 500 μL). Membrane clamp test was carried out after 18 hours.
The voltage stimulus protocol of the whole-cell membrane clamp for recording the whole-cell hERG potassium current is as follows. When a whole-cell sealing was formed, the membrane clamp was disposed at −80 mV. The clamp voltage was depolarized from −80 mV to +30 mV for 2.5 seconds, and then quickly maintained at −50 mV for 4 seconds, which can excite the tail current of the hERG channel. −50 mV was used for leakage current detection in the test. The data was collected repeatly every 10 seconds to observe the effect of the compound on hERG tail current. The test data was collected by EPC-10 amplifier (HEKA) and stored in PatchMaster (HEKA) software.
A capillary glass tube (BF150-86-10, Sutter Instruments) was prepared into a recording electrode using a microelectrode puller (P97, Sutter Instruments). Microelectrode manipulator (MP285, Sutter Instruments) was manipulated under an inverted microscope (IX71, Olympus) to contact the recording electrode to the cell, and suction was applied under negative pressure to form a […]. After forming the […], a rapid capacitance compensation was performed, then a negative pressure was applied to break the cell membrane and create a whole-cell recording mode. A slow capacitor compensation was performed, and the membrane capacitance and series resistance were recorded without leakage compensation.
When the hERG current of the whole-cell record was stable, administration was conducted. Each concentration was tested for 5 minutes (or until the current was stable) before testing the next concentration. Multiple concentrations were tested for each test compound. The cover slide seeded with the cell was placed in a recording bath of an inverted microscope. The test compound and the compound-free extracellular fluid flowed through the recording chamber by gravity perfusion from low concentrations to high concentrations to act on the cell. Liquid exchange was performed using a vacuum pump in the record. For each cell, the current detected in the compound-free extracellular fluid was used as the control. Three cells were repeatly tested independently. All electrophysiological experiments were carried out at room temperature.
For orientation: Block of hERG is tested as a sign of cardiac risk.

T2 sequence (Q12809 whole entry): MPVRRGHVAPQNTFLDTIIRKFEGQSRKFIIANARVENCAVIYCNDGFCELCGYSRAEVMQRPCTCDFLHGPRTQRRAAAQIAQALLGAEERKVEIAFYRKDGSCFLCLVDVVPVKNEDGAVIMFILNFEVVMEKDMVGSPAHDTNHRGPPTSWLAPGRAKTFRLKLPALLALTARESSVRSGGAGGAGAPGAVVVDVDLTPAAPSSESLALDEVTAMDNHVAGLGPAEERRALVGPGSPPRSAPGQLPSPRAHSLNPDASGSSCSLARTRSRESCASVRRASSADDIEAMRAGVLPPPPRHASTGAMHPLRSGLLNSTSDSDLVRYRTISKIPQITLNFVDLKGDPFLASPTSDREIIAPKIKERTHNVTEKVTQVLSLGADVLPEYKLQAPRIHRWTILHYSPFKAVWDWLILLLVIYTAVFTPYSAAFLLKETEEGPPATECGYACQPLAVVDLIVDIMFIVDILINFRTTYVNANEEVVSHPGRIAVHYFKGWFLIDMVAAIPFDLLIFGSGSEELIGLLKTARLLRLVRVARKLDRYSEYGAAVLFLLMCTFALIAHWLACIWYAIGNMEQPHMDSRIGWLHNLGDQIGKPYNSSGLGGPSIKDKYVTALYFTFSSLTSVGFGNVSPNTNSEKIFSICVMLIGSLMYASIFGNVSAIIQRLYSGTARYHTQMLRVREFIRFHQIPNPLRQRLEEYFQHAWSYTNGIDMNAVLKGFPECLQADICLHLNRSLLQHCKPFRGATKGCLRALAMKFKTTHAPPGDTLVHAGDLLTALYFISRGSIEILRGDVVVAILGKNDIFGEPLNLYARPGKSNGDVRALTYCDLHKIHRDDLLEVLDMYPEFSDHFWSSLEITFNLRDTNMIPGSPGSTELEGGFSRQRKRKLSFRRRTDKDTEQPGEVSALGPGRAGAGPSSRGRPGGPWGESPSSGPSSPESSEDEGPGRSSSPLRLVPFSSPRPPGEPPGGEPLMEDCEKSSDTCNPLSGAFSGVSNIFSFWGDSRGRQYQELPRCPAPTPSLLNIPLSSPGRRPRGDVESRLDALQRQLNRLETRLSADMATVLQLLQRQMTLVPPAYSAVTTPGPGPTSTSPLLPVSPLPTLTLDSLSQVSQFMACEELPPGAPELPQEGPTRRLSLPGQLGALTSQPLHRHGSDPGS

Take `Cc1cc(C(=O)O)ccc1-c1nnc(N2[C@@H]3CC[C@H]2C[C@@H](OCc2c(-c4c(Cl)cccc4Cl)noc2C2CC2)C3)o1` [Example 14]: the EC50 in data set [1] was below 25 nM.
With `O=C(O)c1ccc(-c2nnc(N3[C@@H]4CC[C@H]3C[C@@H](OCc3c(-c5c(Cl)cccc5Cl)noc3C3CC3)C4)o2)cc1` [Example 8, 4-(5-((1R,3r,5S)-3-((5-cyclopropyl-3-(2,6-dichlorophenyl)isoxazol-4-yl)methoxy)-8-azabicyclo[3.2.1]octan-8-yl)-1,3,4-oxadiazol-2-yl)benzoic acid], in data set [1], the EC50 was below 25 nM. For the same compound, the “hERG current inhibition ratio” value in data set [2] (0.3 μM, HEK293 cell line stably expressing hERG) is −2.37 ± 0.62%; in data set [2] (1 μM, HEK293 cell line stably expressing hERG), −3.09 ± 0.30%; in data set [2] (3 μM, HEK293 cell line stably expressing hERG), 0.48 ± 1.78%; in data set [2] (10 μM, HEK293 cell line stably expressing hERG), 12.65 ± 2.25%; in data set [2] (30 μM, HEK293 cell line stably expressing hERG), 31.67 ± 1.86%. Further, the IC50 in data set [2] (HEK293 cell line stably expressing hERG, whole-cell membrane clamp, read-out: hERG semi-inhibiting concentration (IC50)) is above 30000 nM. Besides, in data set [2] (conclusion of Test Example 3), the “inhibitory effect on hERG channel (in words)” value was “no inhibitory effect on hERG channel”.
Regarding `O=C(O)c1ccc(-c2nnc(N3[C@@H]4CC[C@H]3C[C@@H](OCc3c(-c5c(Cl)cccc5Cl)noc3C3CC3)C4)o2)s1` [Example 11], the 50% effective concentration (EC50) in data set [1] is 100 to 500 nM.
For the compound `O=C(O)c1ccc(-c2nnc(N3[C@@H]4CC[C@H]3C[C@@H](OCc3c(-c5ccccc5OC(F)(F)F)noc3C3CC3)C4)o2)cc1` [Example 22, 4-(5-((1R,3r,5S)-3-((5-cyclopropyl-3-(2-(trifluoromethoxy)phenyl)isoxazol-4-yl)methoxy)-8-azabicyclo[3.2.1]octan-8-yl)-1,3,4-oxadiazol-2-yl)benzoic acid], the EC50 in data set [1] was below 25 nM.

By EC50 is commonly meant the concentration needed to bring the measured effect to its halfway point.
